Data on two substances can be found in US20230183310A1, “Polypeptide Compounds and Use Thereof in the Prevention or Treatment of Diabetes or Diabetic Complications” (Shenzhen Turier Biotech Co., Ltd., priority 2020, published 2023).

*1 amine or outer side, *2 acyl side, *3 side chain or, on linkers, in order; H or OH if unused. Primed or numbered codes have the meaning given here. Where no end group is shown, it is not given here. Side-chain parts run from the residue outwards. [ ]: non-standard residue; d: D form. The star is where a group is joined. C20 diacid = O=C(O)CCCCCCCCCCCCCCCCCCC(=O)*; γGlu = O=C(O)[C@H](CCC(=O)[*:2])N[*:1]; Iva = CC[C@](C)(N)C(=O)O; PEG2′ = not defined here; Aib = CC(C)(N)C(=O)O

Assay [1] has as its system FN protein (fibronectin). As to the kind of experiment: Western blot of FN protein in high glucose-induced in vitro renal fibrosis cell model. Type of assay: cell-based, rat. Particulars: 10 μM; 30 mmol/L glucose; 48 h; mesangial and renal epithelial cells. The source says: Hyperglycemia and increased production of glycosylation end products will cause morphological changes such as proliferation and hypertrophy of glomerular mesangial cells, increase in extracellular matrix (ECM) and mesangial expansion, which will eventually lead to the loss of its physiological function. […] Therefore, this example used high glucose to induce MCS mesangial cells and NRK renal epithelial cells to construct an in vitro renal fibrosis cell model for screening medicaments useful for the treatment of diabetic nephropathy. The renal mesangial cell strain GMC and glomerular epithelial cells mTEC used in this example were both cells kept in the applicant's laboratory (both were extracted from rat renal primary cells) and cultured in low sugar medium containing 10% fetal bovine serum. The cells were starved with serum-free culture medium for 24 h when grew to 70% confluence. The cells were divided into the following 9 groups by adjusting the glucose concentration as follows: […]
(In western blotting, separated proteins are transferred to a membrane and probed.)

In assay [2] the test system is db/db diabetic mice. As to the kind of experiment: Treatment of 12-week-old db/db diabetic mice: blood glucose, OGTT, ITT, ALT/AST, diabetic nephropathy indices. Type of assay: in vivo. Particulars: for weekly blood glucose (hypoglycemic effect): FIG. 4A, blood glucose at normal levels at week 1; for weekly blood glucose (hypoglycemic effect) / improving oral glucose tolerance (OGTT) / improving insulin resistance (ITT) / ALT and AST in serum (hepatoprotective function): 120 μg/kg s.c. daily; for improving oral glucose tolerance (OGTT): FIG. 4B, week 4; for improving insulin resistance (ITT): FIG. 4C, week 5; for ALT and AST in serum (hepatoprotective function): FIG. 4D; for H&E staining of kidneys: glomerular adhesion, ameliorative and therapeutic effects: FIG. 5B; for H&E staining of kidneys: glomerular adhesion, ameliorative and therapeutic effects / PAS staining of kidneys: ameliorative effects on glomerular mesangial region / collagen content (Sirius red, FN and α-SMA staining of kidneys): after 8 weeks; for H&E staining of kidneys: glomerular adhesion, ameliorative and therapeutic effects / collagen content (Sirius red, FN and α-SMA staining of kidneys): compared to semaglutide, SAR425899 and MED C18-acid groups; for PAS staining of kidneys: ameliorative effects on glomerular mesangial region: FIG. 5C; for collagen content (Sirius red, FN and α-SMA staining of kidneys): FIGS. 5D to 5F. The method, then: Normal mice born in the same litter; DC group: db/db mice control group). Blood glucose and body weight were measured on alternate days after daily administration of the medicament, and water intake and food intake were measured once a week. OGTT was measured at week 4, insulin tolerance (ITT) was measured at week 5, metabolism of mice was examined using mouse metabolic cages at weeks 6-7, and various serological and pathological indices were taken at week 8.
Type 2-diabetes mice were characterized by obesity, insulin resistance, hyperglycemia, dyslipidemia and hepatic fat vacuole-like degeneration.
After 6 weeks of medical treatment, the mice was collected for urine using metabolic cages, and the protein content in the urine was detected using relevant kits. After 7 weeks of medical treatment, the material was taken and blood was used to detect serological indicators such as blood creatinine and urea nitrogen.

The test system of assay [3] is db/db diabetic mice. Briefly: Dose determination in 8-week-old db/db diabetic mice: blood glucose and body weight. Type of assay: in vivo. Particulars: for subsequent blood glucose course (long-lasting effect): from day 3 / after days 3-5. Here is the method: The db/db mice diabetic model (purchased from Nanjing University-Nanjing Institute of Biomedical Research, about 8 weeks, and blood glucose and body weight were measured to ensure the smooth subsequent experiments) was obtained, and the model mice were randomly divided into 12 groups (including polypeptide compounds 3, 8, 13, 15, semaglutide and physiological saline groups), with 6 mice in each group and no difference in basal body weight and blood glucose. Each group was injected subcutaneously with compound 3 (80 and 120 μg/kg, 2 groups), compound 8 (80 and 120 μg/kg, 2 groups), compound 13 (80 and 120 μg/kg, 2 groups), compound 15 (80 and 120 μg/kg, 2 groups), semaglutide (80 and 120 μg/kg, 2 groups) and physiological saline (DN group: normal mice born in the same litter; DC group: db/db mice control group) every day or every other day.
Blood glucose and body weight of mice were measured after daily administration and 6 h fasting on alternate days.

For assay [4], the system named is C57BL/6J mice. Briefly: Oral glucose tolerance (OGTT), repeated glucose loads followed to 24 h after one s.c. dose. In kind it is in vivo. Particulars: four OGTT curves (0-22 h); 100 μg/kg subcutaneously. Here is the method: Eight-week-old male C57BL/6J mice (Model Animal Research Center, Nanjing University) were randomly grouped according to similar blood glucose (assessed by blood samples obtained from the tail tip), with six mice in each group. […] The initial blood samples (fasted blood glucose levels) were obtained after about 4 h. Subsequently, an oral dose of glucose (2 g/kg) was administered and the animals were placed back in their holding cages (t=0). […] The oral dose of glucose was then repeated at 8 h of administration, 12 h of administration and […], and blood glucose changes were detected and followed until 24 hours. The data were processed using the software GraphPadPrism to make a line graph of blood glucose changes, and the area under the curve was calculated to obtain an AUC graph, and the results are shown in FIG. 1.

Where [5] appears, read: FIG. 3A, daily s.c., 120 μg/kg, vs saline DC group.
Where [6] appears, read: FIG. 3B, every other day s.c., 80 μg/kg.
Where [7] appears, read: FIG. 3B, every other day s.c., 120 μg/kg.

On to “His-Aib-Gln-Gly-Thr-Phe-Thr-Ser-Asp-Lys(Gly-Gly-Ser-Gly-Ser-Gly-γGlu-CO(CH2)18-COOH)-Ser-Lys-Tyr-Leu-Asp-Glu-Arg-Ala-Ala-Gln-Asp-Phe-Iva-Gln-Trp-Leu-Leu-Asp-Gly-Gly-Pro-Ser-Ser-Gly-Aib-Pro-Pro-Pro-Ser (H[Aib]QGTFTSDKSKYLDERAAQDF[Iva]QWLLDGGPSSG[Aib]PPPS; not fully specified (residue 10, C-terminus)) [Compound 15]”, for which the “FN protein expression (Western blot)” value in assay [1] is on record as “inhibited FN expression more significantly”. Further, in assay [2], the “weekly blood glucose (hypoglycemic effect)” value is “significant hypoglycemic effects”; the “improving oral glucose tolerance (OGTT)” value is “performed more excellent”; the “improving insulin resistance (ITT)” value was “performed more excellent”; the “ALT and AST in serum (hepatoprotective function)” value is given as “more excellent hepatoprotective functions”. For the same substance, in assay [2], the “H&E staining of kidneys: glomerular adhesion, ameliorative and therapeutic effects” value was “more significant”; the “PAS staining of kidneys: ameliorative effects on glomerular mesangial region” value was “more significant”; the “collagen content (Sirius red, FN and α-SMA staining of kidneys)” value was “improved more significantly”. Moreover, in assay [3] (FIG. 3A, daily s.c.), the “body weight (weight-lowering effect)” value is “better weight-lowering effect”; the “weight-lowering effect relative to compounds 3 and 8” value is “superior to that of compounds 3 and 8”. Also, in assay [3] (FIG. 3A, daily s.c., 80 μg/kg), the “blood glucose (glucose-lowering effect)” value is recorded as “significant glucose-lowering effect with long-lasting effect”. Moreover, in assay [3] (setting [5]), the “blood glucose (glucose-lowering effect)” value was “good glucose-lowering effect in 3-5 days”. Besides, in assay [3] (FIG. 3B, every other day s.c.), the “effect relative to polypeptide compounds 3 and 8” value was “better than that of polypeptide compounds 3 and 8”; the overall hypoglycemic effect result is listed as “more excellent hypoglycemic effect”. Further, the “blood glucose (hypoglycemic effect)” value in assay [3] (setting [6]) is “significant hypoglycemic effect on day 3, but the subsequent blood glucose level did not change much and tended to be stable”. In addition, in assay [3] (setting [7]), the “blood glucose (hypoglycemic effect)” value is recorded as “good hypoglycemic effect on days 3-5” and the “subsequent blood glucose course (long-lasting effect)” value is “kept good hypoglycemic effect”. Besides, the “long-acting hypoglycemic effects compared to semaglutide” value in assay [4] is “superior and significant long-acting hypoglycemic effects”.
Turning to “His-Aib-Gln-Gly-Thr-Phe-Thr-Ser-Asp-Lys(PEG2-PEG2-γGlu-CO(CH2)18CO2H)-Ser-Lys-Tyr-Leu-Asp-Glu-Arg-Ala-Ala-Gln-Asp-Phe-Iva-Gln-Trp-Leu-Leu-Asp-Gly-Gly-Pro-Ser-Ser-Gly-Aib-Pro-Pro-Pro-Ser-NH2 (H[Aib]QGTFTSDK([PEG2′-PEG2′-γGlu-C20 diacid])SKYLDERAAQDF[Iva]QWLLDGGPSSG[Aib]PPPS-NH2) [Compound 8]”, in assay [1], the “FN protein expression (Western blot)” value was “inhibited FN expression more significantly”. For the same substance, in assay [2], the “weekly blood glucose (hypoglycemic effect)” value was “significant hypoglycemic effects”; the “improving oral glucose tolerance (OGTT)” value is recorded as “performed more excellent”; the “improving insulin resistance (ITT)” value is “performed more excellent”; the “ALT and AST in serum (hepatoprotective function)” value is on record as “more excellent hepatoprotective functions”. For the same substance, in assay [2], the “H&E staining of kidneys: glomerular adhesion, ameliorative and therapeutic effects” value was “more significant”; the “PAS staining of kidneys: ameliorative effects on glomerular mesangial region” value is recorded as “more significant”; the “collagen content (Sirius red, FN and α-SMA staining of kidneys)” value is on record as “improved more significantly”. Further, in assay [3] (FIG. 3A, daily s.c.), the “body weight (weight-lowering effect)” value is recorded as “better weight-lowering effect”. Besides, the “blood glucose (glucose-lowering effect)” value in assay [3] (FIG. 3A, daily s.c., 80 μg/kg) is recorded as “significant glucose-lowering effect”. In assay [3] (setting [5]), the “blood glucose (glucose-lowering effect)” value is listed as “good glucose-lowering effect in 3-5 days”. For the same substance, in assay [3] (FIG. 3B, every other day s.c.), the overall hypoglycemic effect result is reported as “more excellent hypoglycemic effect”. Besides, in assay [3] (setting [6]), the “blood glucose (hypoglycemic effect)” value is “first decrease and then increase, and the overall hypoglycemic effect was significant”. Moreover, in assay [3] (setting [7]), the “blood glucose (hypoglycemic effect)” value is “good hypoglycemic effect on days 3-5” and the “subsequent blood glucose course (long-lasting effect)” value was “the blood glucose did not change much”. Also, in assay [4], the “long-acting hypoglycemic effects compared to semaglutide” value was “superior and significant long-acting hypoglycemic effects”.
